Measurements reported in ChEMBL document CHEMBL1141821, “Bioactive sesquiterpenes from a Taiwanese marine sponge Parahigginsia sp” (J Nat Prod, 1999).
Converted amounts (≈) assume the structure as drawn.

Assays:
Format in all cases: functional, cell-based
[1] = Cytotoxicity against human KB16 cells after 3 days by MTT assay; details: KB16, 72 h
[2] = system: A549; assay: Cytotoxicity against human A549 cells after 6 days by MTT assay; details: A549, 144 h
[3] = system: HT-29; assay: Cytotoxicity against human HT-29 cells after 6 days by MTT assay; details: HT-29, 144 h
[4] = system: P388; assay: Cytotoxicity against mouse P388 cells after 3 days by MTT assay; details: P388, 72 h

Structure (SMILES) | IC50 [1] [µg/mL] | IC50 [2] [µg/mL] | IC50 [3] [µg/mL] | IC50 [4] [µg/mL]
CC(=O)OC(CC(C)C)CC(C)c1ccc(C)cc1O (stereo not drawn) [PARAHIGGINOL C] | 3.9 (≈ 14 µM) | 2.8 (≈ 10.1 µM) | 2.6 (≈ 9.34 µM) | 2.5 (≈ 8.98 µM)
COc1cc(C(=O)O)ccc1C(C)/C=C/C=C(C)C (stereo not drawn) [PARAHIGGINIC ACID] | 4.8 (≈ 18.4 µM) | 3.9 (≈ 15 µM) | 6 (≈ 23 µM) | 1 (≈ 3.84 µM)
CC(C)=CCC[C@H](C)c1ccc(C)cc1O | 8.3 (≈ 38 µM) |  | 8.1 (≈ 37.1 µM) | 0.1 (≈ 0.458 µM)
Cc1ccc(C(C)CC(O)CC(C)C)c(O)c1 (stereo not drawn) [PARAHIGGINOL A] | > 50 | > 50 | > 50 | > 50
CC(=O)OC(CC(C)C)CC(C)c1ccc(C=O)cc1O (stereo not drawn) [PARAHIGGINOL B] | 4.9 (≈ 16.8 µM) | 10 (≈ 34.2 µM) | 3.5 (≈ 12 µM) | 3 (≈ 10.3 µM)
CC(C)=C/C=C/C(C)c1ccc(C=O)c(O)c1O (stereo not drawn) [PARAHIGGINOL D] | 7.2 (≈ 29.2 µM) | 3.8 (≈ 15.4 µM) | 3.3 (≈ 13.4 µM) | 2.9 (≈ 11.8 µM)
